Test results taken from article PMC3098202, “Inhibition of Both HIV-1 Reverse Transcription and Gene Expression by a Cyclic Peptide that Binds the Tat-Transactivating Response Element (TAR) RNA” (PLoS Pathogens, 2011).
Where two headings read alike, the source gives them in different places. Peptide text beside a SMILES is read from it.

Key:
[1] = test system: murine leukemia virus (MLV); format: cell-based
[2] = test system: HIV-1NL4-3 carrying firefly luciferase; format: cell-based; conditions: for t1/2, time of drug addition that maintains 50% inhibition: AMD3100 10 µM, T20 10 µM, 3TC 100 µM, Raltegravir 10 µM, DRB 50 µM
HIV-1Luc-AM = format: cell-based
[3] = test system: Tat/Rev-dependent luciferase after 293T (HIV-1 Env) / U87.CD4.CXCR4 cell fusion; conditions: for t1/2, time of drug addition that maintains 50% inhibition, cell-to-cell fusion: monophasic, Tat/Rev-dependent luciferase in cell lysates, triplicate
HIV-1NL4-3 [4] = experiment: Inhibition of HIV-1 NL4-3 replication in U87.CD4.CXCR4 cells (RT activity in supernatant); format: cell-based
Experimental: Drug sensitivity assays were performed on U87.CD4.CXCR4/CCR5 cells and in peripheral blood mononuclear cells (PBMC). Peptidomimetics or control drugs were added to cells to yield final concentrations between 100 µM and 10 nM. Cells were incubated with drug for 1 h and exposed to the virus at a multiplicity of infection of 0.001, incubated with the virus for 24 h, and input virus washed away. Supernatant aliquots were removed and virus production was quantified by reverse transcriptase assay. Virus production at each drug concentration was normalized and the relative values were plotted versus drug concentration to determine 50% inhibitory concentrations (IC50). Variations on these drug susceptibility assays are defined in each figure and related text. For the time-of-drug-inhibition experiments, HIV-1 was spinonculated onto U87-CD4/CCR5 cells as previously described. The cells were washed twice with cold phosphate buffered saline (PBS) to remove unbound virions. Cells were resuspended in cold medium and split into 96-well plates (50 µl/well). […] Cells were incubated for 72 h and then treated with lysis buffer and luciferase activity was determined. The same procedure was utilized for the time-of-drug-addition experiment involving cell-to-cell fusion. […]

[5] = test system: Tat-dependent transcription from HIV-1 LTR; experiment: Tat-dependent transactivation in cell-free transcription; format: biochemical
[6] = test system: Tat-mediated transactivation of HIV-1 LTR; experiment: LTR-luciferase reporter + Tat in 293T cells (Figure 3B); format: cell-based; conditions: 10 µM
CMV promoter = CMV promoter luciferase control reporter in 293T cells; format: cell-based
HIV-1 LTR promoter = experiment: pLTR.LUC reporter alone or co-transfected with HIV-1NL4-3 in 293T cells (Figure 4); format: cell-based
HIV-1NL4-3 [7] = experiment: Infection of U87.CD4.CXCR4 cells with supernatants of L-50-treated 293T transfections (Figure 4D); format: cell-based
Experimental: To test whether the virus released from transfected cells could be inhibited by L-50 under conditions of multiple-cycle growth, virus-containing supernatants from 293T transfections (containing L-50) were used to infect U87.CD4.CXCR4 cells (which support multiple rounds of HIV-1 replication) and viral progeny were measured 10 days post-infection. […] Removal of L50 from virus was attempted by pelleting virus from supernatant of L50-treated cells transfected with NL4-3. It is important to note that virus production was already decreased by L50 at least 50% from transfected cells.

[8] = test system: (-) strand strong stop DNA synthesis by recombinant HIV-1 RT (p66/p51) on wild type TAR template; experiment: Reconstituted in vitro reverse transcription, wild type R_U5_pbs RNA template; format: biochemical
From the text: This assay measures the synthesis of (-) strand strong stop DNA by recombinant HIV-1 RT (p66/p51) from an 18 nt DNA primer, pre-annealed to an HIV-1 RNA template encompassing the repeat (R), 5′ unique sequence (U5), and the primer binding sequence (PBS) [49].
HIV-1 RNA representing the wild type R, U5, pbs, and uncoding sequence (270 nt) (wt R_U5_pbs RNA) was produced by in vitro T3 transcription (T3 MegaScript, Ambion) from a PCR product (with T3 extended primer) derived from NL4-3. […] The DNA primer (18 nt), complementary to the primer binding sequence (3′ end of tRNA^Lys,3), was annealed to the template as described [78]. The DNA primer was annealed to the various HIV-1 RNA templates by denaturation and annealing conditions previously described [78]. […] Reactions were incubated at 37°C for 45 min and then quenched with formamide EDTA loading buffer [78] for subsequent electrophoresis on a 8% denaturing polyacrylamide gel. Gels were autoradiographed and analyzed with a BioRad phosphorimager.

[9] = test system: (-) strand strong stop DNA synthesis by HIV-1 RT on mutant TAR template; experiment: Reconstituted in vitro reverse transcription, mutant TAR RNA template; format: biochemical; conditions: 8 µM
From the text: To determine if L-50 inhibition of reverse transcription was dependent on the high affinity Tat-binding site located at the TAR bulge, mutations that inactivate Tat-binding were introduced into the RNA template (Figure 9A).
The mutant TAR RNA transcript (with mutations 5′-UCUG-3′ to 5′-UGGU-3′ in the bulge) was generated by T3 transcription from a PCR product with the forward primer having the nt substitutions for site-directed mutagenesis. […] The DNA primer (18 nt), complementary to the primer binding sequence (3′ end of tRNA^Lys,3), was annealed to the template as described [78]. The DNA primer was annealed to the various HIV-1 RNA templates by denaturation and annealing conditions previously described [78]. […] Reactions were incubated at 37°C for 45 min and then quenched with formamide EDTA loading buffer [78] for subsequent electrophoresis on a 8% denaturing polyacrylamide gel. Gels were autoradiographed and analyzed with a BioRad phosphorimager.

HIV-1 TAR = conditions: cited from earlier work
From the text: Linear peptide derivatives have been used previously to target TAR RNA and block Tat binding, [17], [20], [21] but their utility was limited by conformational flexibility which allowed non-specific RNA binding. To avoid this problem we have developed conformationally constrained mimics of HIV-1 Tat [24]–[27] based on the structure of the BIV (Bovine Immunodeficiency Virus) Tat-TAR complex, [29] (Figure 1). Specifically, we constructed a series of ß-hairpin mimics with 12-residue loops on a heterochiral D-Pro-L-Pro dipeptide scaffold. This D-Pro-L-Pro scaffold strongly ... || Our design of inhibitors of the TAR RNA-Tat protein interaction started with the assumption that constrained peptidomimetics would provide effective rationale to block the relatively large interfaces formed between the viral protein and its cognate RNA [24]–[27]. The D-Pro-L-Pro template restricts pharmacophores into planar ß-hairpin structures with side chains emerging from each side. […] Specific and high affinity binding allow ...

BIV TAR RNA = conditions: Discussion; cited from earlier work
From the text: Our design of inhibitors of the TAR RNA-Tat protein interaction started with the assumption that constrained peptidomimetics would provide effective rationale to block the relatively large interfaces formed between the viral protein and its cognate RNA [24]–[27]. The D-Pro-L-Pro template restricts pharmacophores into planar ß-hairpin structures with side chains emerging from each side. […] Specific and high affinity binding allow ...

[10] = test system: HIVNL4-3 transcription / virus production; experiment: Single-cycle growth assay, 293T cells transfected with pNL4-3 (Figure 3C); conditions: 50 µM; 293T cells transfected with HIVNL4-3; monitored by RT activity
HIV NL4-3 = experiment: Inhibition of HIV NL4-3 in PHA/IL-2 stimulated human PBMC; format: cell-based, HIV-1; conditions: Human immunodeficiency virus 1, NL43; human PBMC stimulated with PHA/IL-2; RT activity in supernatant at 8 and 10 days post-infection
Experimental: Figure 2 Testing the susceptibility of HIV-1 to inhibition by Tat peptidomimetics. (A) Comparison of the relative inhibition of the HIV-1 NL4-3 laboratory strain by three lead Tat peptidomimetics. Virus production in cell free supernatant was measured using an endogenous RT assay. […] (D) L-50 inhibition of viral replication of three primary CCR5-tropic HIV-1 isolates measured in U87.CD4.CCR5 cells (A1 is the subtype A Rawandan isolate A1-92RW009, B5 is the subtype B isolate B5-91US056 from the USA and C5 is the subtype C isolate C5-97ZA003 from South Africa) and of CXCR4-tropic strains (D1 is the Ugandan subtype D isolate D1-92UG021, E6 is the subtype A/E circulating recombinant isolate CRF01_AE from Thailand) as well as the laboratory strain HIV-1NL4-3 measured in U87.CD4.CXCR4 cell cultures. […] (E) Inhibition of HIV NL4-3 was also measure in human peripheral blood mononuclear cells stimulated with PHA/IL-2. […] Virus production was measured at 8 and 10 days post-infection by the RT activity in the supernatant (cpm/mL).
Drug sensitivity assays were performed on U87.CD4.CXCR4/CCR5 cells and in peripheral blood mononuclear cells (PBMC). […] Supernatant aliquots were removed and virus production was quantified by reverse transcriptase assay. […] Cells were incubated for 72 h and then treated with lysis buffer and luciferase activity was determined. […]

[11] = test system: HIV-1NL4-3 carrying firefly luciferase; conditions: cited from earlier work
From the text: There is also evidence that Tat plays a role in viral reverse transcription, although much of this work has been controversial. Loss of function Tat mutants have been reported to impair reverse transcription 3- to 5-fold compared to wild type HIV-1 both in infected T cells and in endogeneous reverse transcription reactions, [69]. Tat-mediated RNA secondary structure remodeling may facilitate obligatory strand transfers during viral DNA synthesis by reverse transcriptase. However, it is possible to create replication-competent viruses where the TAR RNA sequence is replaced by a ...

[12] = synchronized infection, luciferase at 72 h, triplicate
[13] = U87.CD4.CXCR4 cells, Tat-independent SV40-driven reporter
[14] = L50 250 µM, synchronized infection, luciferase at 72 h, triplicate

Cc1cn([C@H]2C[C@H](N=[N+]=[N-])[C@@H](CO)O2)c(=O)[nH]c1=O [AZT]
Inhibition of MLV replication (words, Discussion) [1]: blocked MLV replication | Inhibition of MLV replication ([1]; 100 µM): completely blocked

OC[C@H]1O[C@@H](n2cnc3cc(Cl)c(Cl)cc32)[C@H](O)[C@@H]1O [DRB, 5,6-dichloro-1-ß-D-ribobenzimidazole, reference compound]
t1/2, time of drug addition that maintains 50% inhibition [2, 12]: 35.3 h | Luciferase expression in HIV-1Luc-AM infected cells (HIV-1Luc-AM; [13]): efficiently inhibited | t1/2, time of drug addition that maintains 50% inhibition, cell-to-cell fusion [3]: 11.3 h

c1cc(CN2CCCNCCNCCCNCC2)ccc1CN1CCCNCCNCCCNCC1 [AMD3100, reference compound]
t1/2, time of drug addition that maintains 50% inhibition [2, 12]: 0.77 h | Inhibition of cell-to-cell fusion [3]: highly sensitive to inhibition

CC[C@H](C)[C@@H]1NC(=O)[C@H](CCCNC(=N)N)NC(=O)[C@H](CCCNC(=N)N)NC(=O)[C@H](CCCCN)NC(=O)CNC(=O)[C@H](CCCNC(=N)N)NC(=O)[C@H]([C@@H](C)O)NC(=O)[C@H](CCCNC(=N)N)NC(=O)[C@H](C(C)C)NC(=O)[C@H](CCCNC(=N)N)NC(=O)[C@@H]2CCCN2C(=O)[C@H]2CCCN2C(=O)[C@H](CCCNC(=N)N)NC(=O)[C@H](CCCNC(=N)N)NC1=O [L-50] (HELM PEPTIDE1{R.V.R.T.R.G.K.R.R.I.R.R.[dP].P}$PEPTIDE1,PEPTIDE1,1:R1-14:R2$$$V2.0)
Inhibition of HIV-1NL4-3 replication (HIV-1NL4-3 [4]; Figure 2A): able to inhibit replication | IC50 ([5]; cell-free transcription, nuclear extract, recombinant Tat, 20 min at 30°C, read-out: IC50, decrease of full-length transcripts (ρ)): 50 nM | Production of short transcripts (τ) ([5]; internal control for non-specific inhibition of transcription): largely unaffected | Reduction of Tat-mediated transactivation [6]: 53% | Reduction of transcription from control CMV promoter (CMV promoter; 10 µM, 293T cells): 12% | Reduction of CMV promoter-driven luciferase activity (CMV promoter; 50 µM, 293T cells cotransfected with HIVNL4-3): less than 5% | CMV promoter-driven luciferase expression with HIV-1NL4-3 (CMV promoter; 293T cells, Figure 4B): not significantly inhibited | Decrease in luciferase expression (pLTR.LUC + HIV-1NL4-3) (HIV-1 LTR promoter; 200 µM, 293T cells, p = 0.03, N = 5): 1.7 fold | HIV-1 virion expression (HIV-1 LTR promoter; 200 µM, RT activity in cell-free supernatant of transfected 293T cells): modest, but reproducible reduction | Luciferase expression in cells transfected with either reporter plasmid alone (HIV-1 LTR promoter; 293T cells, no Tat): did not inhibit | Decrease of virus production from transfected cells (HIV-1NL4-3 [7]; 293T cells transfected with NL4-3): at least 50% | Viral progeny 10 days post-infection (HIV-1NL4-3 [7]; U87.CD4.CXCR4 cells infected with virus made in the presence of L-50): No measurable viral progeny | t1/2, first (early) phase of biphasic inhibition [2, 14]: 1.8 h | t1/2, second (late) phase of biphasic inhibition [2, 14]: 35.7 h | Block of viral replication in the initial inhibitory phase ([2]; added up to approximately 2 h post infection): ~100% | Luciferase expression in HIV-1Luc-AM infected cells (HIV-1Luc-AM): efficiently blocked | Inhibition of MLV [1]: did not inhibit | Inhibition of MLV replication (words, Discussion) [1]: did not | Inhibition of (−) strong stop synthesis on the wild type template ([8]; 8 µM): 80% | IC50 ([8]; read-out: IC50, inhibition of (−) strand strong stop DNA synthesis (as printed in picture of Figure 8B)): 5.5 ± 0.57 µM | IC50 ([8]; recombinant HIV-1 RT, 18 nt DNA primer, RNA template ∼2 µM, 37°C 45 min, triplicate, read-out: IC50, inhibition of (−) strand strong stop DNA synthesis): 5.5 ± 0.57 µM | Inhibition of (−) strong stop DNA synthesis on template with mutations in the TAR L-50 binding site [9]: less than 10% | Affinity for HIV-1 TAR (HIV-1 TAR; Discussion): nanomolar affinities | Kd (HIV-1 TAR; in vitro): 1 nM | Inhibition of cell-to-cell fusion [3]: no measurable inhibition | t1/2, time of drug addition that maintains 50% inhibition, cell-to-cell fusion [3]: 8.2 h | Discrimination against BIV TAR RNA sequence (BIV TAR RNA): effectively discriminated | Inhibition of production of the viral RNA [10]: 76%

Nc1ccn([C@@H]2CS[C@H](CO)O2)c(=O)n1 [3TC]
IC50 (HIV-1NL4-3 [4]; Human immunodeficiency virus 1, virus production by RT assay, MOI 0.001): 120 ± 30 nM | IC50 (HIV NL4-3): 10 nM | Luciferase expression in HIV-1Luc-AM infected cells (HIV-1Luc-AM; [13]): efficiently inhibited | Inhibition of MLV replication (words, Discussion) [1]: blocked MLV replication

Cc1nnc(C(=O)NC(C)(C)c2nc(C(=O)NCc3ccc(F)cc3)c(O)c(=O)n2C)o1 [Raltegravir, reference compound]
t1/2, time of drug addition that maintains 50% inhibition [2, 12]: 11.5 h

Cc1ccnc2c1NC(=O)c1cccnc1N2C1CC1 [NVP]
IC50 (HIV NL4-3): 65 nM | t1/2 of nevirapine in time-of-drug-addition [11]: ~7 h
